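Compound exposure: 48 hours, 5 concentrations, 96-well plates. Abbreviation: GI50, concentration required for 50% inhibition of growth.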 Activity calls are given as the source filed them. Cut-off read from the data, not from the text of the source: active = GI50 up to about 1.1 µM and inactive = higher.
Assays:
Experiment in all cases: inhibition of tumour cell growth, NCI panel, 48 h
[1] = test system: A549
[2] = test system: ACHN
[3] = test system: CCRF-CEM
[4] = test system: HCT-15
[5] = test system: M14
[6] = test system: MOLT-4
[7] = test system: Malme-3M
[8] = test system: RXF 393
[9] = test system: SF-295
[10] = test system: SF-539
[11] = test system: SK-MEL-28
[12] = test system: SW-620
[13] = test system: TK-10
[14] = test system: U-251
[15] = test system: RPMI-8226

| SMILES | GI50 [1] | GI50 [2] | GI50 [3] | GI50 [4] [µM] | GI50 [5] | GI50 [6] | GI50 [7] | GI50 [8] | GI50 [9] | GI50 [10] | GI50 [11] | GI50 [12] | GI50 [13] | GI50 [14] | GI50 [15] |
| --- | --- | --- | --- | --- | --- | --- | --- | --- | --- | --- | --- | --- | --- | --- | --- |
| OC(CCNC12CC3CC(CC(C3)C1)C2)c1ccccc1 (configuration not stated) | > 100 µM (inactive) | > 100 µM (inactive) | 60.5 µM (inactive) | > 100 | 40.4 µM (inactive) | > 100 µM (inactive) | > 100 µM (inactive) | > 100 µM (inactive) | > 100 µM (inactive) | > 100 µM (inactive) | > 100 µM (inactive) | > 100 µM (inactive) | > 100 µM (inactive) | > 100 µM (inactive) |  |
| Cc1ccc(NC(=O)CCC(=O)C(C#N)c2ccccc2)cc1C (configuration not stated) | > 100 µM (inactive) | > 100 µM (inactive) | > 100 µM (inactive) | > 100 | > 100 µM (inactive) | > 100 µM (inactive) | > 100 µM (inactive) |  | > 100 µM (inactive) | > 100 µM (inactive) |  | > 100 µM (inactive) | > 100 µM (inactive) | > 100 µM (inactive) | > 100 µM (inactive) |
| COc1cccc(NC(=O)/C(CS(=O)(=O)CCC(C(C)=O)C(C)=O)=N/NC(C)(C)C)c1 | > 100 µM (inactive) | > 100 µM (inactive) | > 100 µM (inactive) | > 100 | > 100 µM (inactive) | > 100 µM (inactive) | > 100 µM (inactive) | > 100 µM (inactive) |  | > 100 µM (inactive) | > 100 µM (inactive) | > 100 µM (inactive) | > 100 µM (inactive) | > 100 µM (inactive) | > 100 µM (inactive) |
| COc1cc(C2C(Cl)C(=O)N2n2cnc3ccccc3c2=O)cc(OC)c1OC (configuration not stated) | > 100 µM (inactive) | > 100 µM (inactive) | 82 µM (inactive) | 63.7 | 84.5 µM (inactive) | 59.2 µM (inactive) | > 100 µM (inactive) | > 100 µM (inactive) | > 100 µM (inactive) |  | > 100 µM (inactive) | 60.3 µM (inactive) | > 100 µM (inactive) | > 100 µM (inactive) | 77.8 µM (inactive) |
| O=S1(=O)OCCOS(=O)(=O)C1Br | > 100 µM (inactive) |  | > 100 µM (inactive) |  | > 100 µM (inactive) | > 100 µM (inactive) | > 100 µM (inactive) |  | 86.5 µM (inactive) | > 100 µM (inactive) | > 100 µM (inactive) | > 100 µM (inactive) | > 100 µM (inactive) |  | > 100 µM (inactive) |
| CCCCCCCC(=O)OC[C@H](C[As](=O)(O)O)OC(=O)CCCCCCC | 2.86 µM (inactive) | 10.7 µM (inactive) | 1.95 µM (inactive) | 10.5 | 12.3 µM (inactive) | 2.15 µM (inactive) | 12.7 µM (inactive) | 3.92 µM (inactive) | 14.4 µM (inactive) | 5.13 µM (inactive) | 13.3 µM (inactive) | 7.26 µM (inactive) |  | 4.95 µM (inactive) | 5.36 µM (inactive) |
| COC(=O)CCC(=O)Nc1ccc(Cl)cc1C | > 22 µM (inactive) | > 37.2 µM (inactive) | 0.123 µM (active) | > 100 | > 100 µM (inactive) | 1.8 µM (inactive) | > 100 µM (inactive) | > 63 µM (inactive) | > 100 µM (inactive) | > 100 µM (inactive) | > 100 µM (inactive) | > 100 µM (inactive) | > 100 µM (inactive) | > 22.4 µM (inactive) | 0.973 µM (active) |
| O=C(N/C(=C\c1ccc([N+](=O)[O-])cc1)c1nc2ccccc2[nH]1)c1ccccc1 | 93.5 µM (inactive) | > 100 µM (inactive) |  | 45.5 | > 100 µM (inactive) | > 100 µM (inactive) | > 100 µM (inactive) | > 100 µM (inactive) | > 100 µM (inactive) | > 100 µM (inactive) | > 100 µM (inactive) | > 100 µM (inactive) | > 100 µM (inactive) | 63.7 µM (inactive) | > 100 µM (inactive) |
| C#CC1(O)CC(c2ccccc2)N(C)C(c2ccccc2)C1 (configuration not stated) | > 100 µM (inactive) | > 100 µM (inactive) | > 100 µM (inactive) | > 100 | > 100 µM (inactive) | > 100 µM (inactive) | > 100 µM (inactive) | > 100 µM (inactive) | > 100 µM (inactive) | > 100 µM (inactive) | > 100 µM (inactive) | > 100 µM (inactive) | > 100 µM (inactive) | > 100 µM (inactive) |  |
| O=C1CC2CCCCC2=C1O (configuration not stated) | > 100 µM (inactive) | > 100 µM (inactive) | > 100 µM (inactive) | > 100 |  | > 100 µM (inactive) | > 100 µM (inactive) | > 100 µM (inactive) | > 100 µM (inactive) | > 100 µM (inactive) | > 100 µM (inactive) | > 100 µM (inactive) | > 100 µM (inactive) | > 100 µM (inactive) | > 100 µM (inactive) |
| CN1C(=O)CCC1(O)C1C=CC=CC1 (configuration not stated) | > 100 µM (inactive) | > 100 µM (inactive) | > 100 µM (inactive) | > 100 | > 100 µM (inactive) | > 100 µM (inactive) | > 100 µM (inactive) | > 100 µM (inactive) | > 100 µM (inactive) | > 100 µM (inactive) | > 100 µM (inactive) | > 100 µM (inactive) | > 100 µM (inactive) | > 100 µM (inactive) | > 100 µM (inactive) |
| NC(=S)Nc1nnc(-c2ccc(-c3nnc(NC(N)=S)o3)cc2)o1 | > 100 µM (inactive) | > 100 µM (inactive) | > 100 µM (inactive) | > 100 | > 100 µM (inactive) | > 100 µM (inactive) | > 100 µM (inactive) | > 100 µM (inactive) | > 100 µM (inactive) | > 100 µM (inactive) | > 100 µM (inactive) | > 100 µM (inactive) | > 100 µM (inactive) | > 100 µM (inactive) | > 100 µM (inactive) |
| Nc1c(Cl)ncnc1NCCCNc1ncnc(Cl)c1N | > 100 µM (inactive) | > 100 µM (inactive) | > 100 µM (inactive) | > 100 | > 100 µM (inactive) | > 100 µM (inactive) |  | > 100 µM (inactive) | > 100 µM (inactive) | > 100 µM (inactive) | > 100 µM (inactive) | > 100 µM (inactive) | > 100 µM (inactive) | > 100 µM (inactive) | > 100 µM (inactive) |
| COC(=O)C1[C@H](c2ccc3c(c2)OCO3)OC(=O)[C@]1(C(=O)OC)C(=O)c1ccc(OC)c(OC)c1 (some centres not stated) |  | 60.3 µM (inactive) | 43.3 µM (inactive) | 33.7 | 70.1 µM (inactive) | 20.5 µM (inactive) | 84.9 µM (inactive) |  | > 100 µM (inactive) | > 10 µM (inactive) |  | 39.3 µM (inactive) | > 100 µM (inactive) | 44.9 µM (inactive) | 46.2 µM (inactive) |
| N=C(N)SCCc1cn2ccccc2n1 | > 100 µM (inactive) | > 100 µM (inactive) | > 100 µM (inactive) | > 100 | > 100 µM (inactive) | > 100 µM (inactive) | > 100 µM (inactive) |  | > 100 µM (inactive) | > 100 µM (inactive) | > 100 µM (inactive) | > 100 µM (inactive) | > 100 µM (inactive) | > 100 µM (inactive) | > 100 µM (inactive) |
